Calls of active or inactive are those of the source. Some results are limits rather than exact numbers.

For 10 molecules, IC50, AC50 and EC50 results are on record in ChEMBL document CHEMBL1201862, “PubChem BioAssay data set” (2004).

The target of one experiment is Protein Wnt-3a (Mus musculus, UniProt P27467). As to the kind of experiment: Wnt3a-driven reporter signaling inhibition, dose response, selectivity assay for Gli-SUFU antagonist project, Wnt-LIGHT cells, luminescence (AID 651570).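 Note: Wnt-LIGHT reporter cells stimulated with conditioned medium from Wnt3a-producing cells.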 The experiment is classed as functional. The conditions noted are these: read-out: IC50_Mean.
Chain of Protein Wnt-3a (P27467 whole entry): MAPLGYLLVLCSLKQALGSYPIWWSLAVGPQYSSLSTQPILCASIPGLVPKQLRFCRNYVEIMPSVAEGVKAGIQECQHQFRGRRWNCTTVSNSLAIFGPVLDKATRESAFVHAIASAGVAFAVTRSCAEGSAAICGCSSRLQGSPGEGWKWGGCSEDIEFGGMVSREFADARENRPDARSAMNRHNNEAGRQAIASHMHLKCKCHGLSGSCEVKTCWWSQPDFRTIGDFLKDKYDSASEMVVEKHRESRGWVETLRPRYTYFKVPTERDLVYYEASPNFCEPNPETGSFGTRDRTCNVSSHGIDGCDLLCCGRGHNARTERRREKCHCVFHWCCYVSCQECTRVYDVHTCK
For experiment [1], the target named is T1, Apoptotic protease-activating factor 1 (Homo sapiens, UniProt O14727).
T1 sequence (O14727 whole entry): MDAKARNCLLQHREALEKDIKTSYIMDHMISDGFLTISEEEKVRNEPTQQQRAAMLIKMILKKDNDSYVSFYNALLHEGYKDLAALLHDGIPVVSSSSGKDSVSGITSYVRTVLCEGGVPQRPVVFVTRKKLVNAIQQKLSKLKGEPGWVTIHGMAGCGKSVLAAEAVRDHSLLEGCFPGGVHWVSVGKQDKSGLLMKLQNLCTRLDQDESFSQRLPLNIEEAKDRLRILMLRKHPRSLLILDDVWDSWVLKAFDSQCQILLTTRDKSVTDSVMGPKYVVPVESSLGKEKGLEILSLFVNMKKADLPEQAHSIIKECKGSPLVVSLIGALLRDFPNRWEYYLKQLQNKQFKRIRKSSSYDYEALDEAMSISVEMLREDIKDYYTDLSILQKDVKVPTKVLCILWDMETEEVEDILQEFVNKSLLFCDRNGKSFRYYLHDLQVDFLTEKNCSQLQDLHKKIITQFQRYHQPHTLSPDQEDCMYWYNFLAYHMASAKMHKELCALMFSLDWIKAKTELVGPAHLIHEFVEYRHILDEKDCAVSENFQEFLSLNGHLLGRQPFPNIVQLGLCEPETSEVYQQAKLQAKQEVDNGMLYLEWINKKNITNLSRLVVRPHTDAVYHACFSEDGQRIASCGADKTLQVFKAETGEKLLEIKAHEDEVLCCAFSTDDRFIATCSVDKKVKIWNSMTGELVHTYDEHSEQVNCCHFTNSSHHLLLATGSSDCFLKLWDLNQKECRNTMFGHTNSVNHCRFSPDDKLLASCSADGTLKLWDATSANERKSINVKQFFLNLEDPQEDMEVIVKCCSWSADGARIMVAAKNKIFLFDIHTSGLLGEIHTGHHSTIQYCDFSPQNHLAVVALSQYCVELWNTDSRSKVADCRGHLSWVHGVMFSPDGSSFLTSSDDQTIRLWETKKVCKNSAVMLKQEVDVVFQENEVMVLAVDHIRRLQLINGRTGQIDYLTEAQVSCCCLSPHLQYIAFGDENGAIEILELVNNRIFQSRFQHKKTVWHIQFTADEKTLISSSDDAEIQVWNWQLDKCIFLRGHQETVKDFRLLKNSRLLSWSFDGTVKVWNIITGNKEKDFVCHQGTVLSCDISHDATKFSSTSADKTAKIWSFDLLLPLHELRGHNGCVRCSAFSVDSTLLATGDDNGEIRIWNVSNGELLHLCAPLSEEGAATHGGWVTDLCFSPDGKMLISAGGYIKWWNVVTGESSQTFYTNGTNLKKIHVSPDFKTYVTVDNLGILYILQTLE
The experiment is classed as functional.

In experiment [2] the target is T2, Sentrin-specific protease 8 (Homo sapiens, UniProt Q96LD8).
T2 sequence (Q96LD8 whole entry): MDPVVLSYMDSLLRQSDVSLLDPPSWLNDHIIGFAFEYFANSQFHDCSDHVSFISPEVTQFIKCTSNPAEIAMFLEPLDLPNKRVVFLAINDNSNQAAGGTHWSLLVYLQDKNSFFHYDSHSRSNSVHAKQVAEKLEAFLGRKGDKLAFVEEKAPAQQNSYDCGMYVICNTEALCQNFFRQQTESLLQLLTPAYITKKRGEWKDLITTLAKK
The experiment is classed as functional.

Experiment [3] has as its target T2, Sentrin-specific protease 8. The experiment is classed as functional. The source holds these as a separate data set.
Experiment [4] has the same target. Kind of experiment: SENP8 protease inhibitors, SAR follow-up, biochemical, luminescence (AID 504501). In kind it is functional.
The next experiment addresses T3, Caspase-3 (Homo sapiens, UniProt P42574).
T3 sequence (P42574 whole entry): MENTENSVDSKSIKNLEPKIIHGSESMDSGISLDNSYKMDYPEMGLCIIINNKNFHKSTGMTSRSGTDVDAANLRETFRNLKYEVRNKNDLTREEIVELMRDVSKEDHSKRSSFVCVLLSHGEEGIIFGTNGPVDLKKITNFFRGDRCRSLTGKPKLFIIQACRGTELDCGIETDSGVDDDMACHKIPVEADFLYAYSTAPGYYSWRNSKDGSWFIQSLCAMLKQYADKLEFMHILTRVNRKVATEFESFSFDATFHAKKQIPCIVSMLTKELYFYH
Kind of experiment: SAR Analysis of small molecule inhibitors of Sentrin-specific proteases (SENPs) using a Caspase-3 Selectivity assay. [Related pubchem assays (depositor defined):AID2540, AID2599, AID434973, AID489001]. In kind it is functional.

For experiment [5], the target named is T4, Sentrin-specific protease 6 (Homo sapiens, UniProt Q9GZR1).
T4 sequence (Q9GZR1 whole entry): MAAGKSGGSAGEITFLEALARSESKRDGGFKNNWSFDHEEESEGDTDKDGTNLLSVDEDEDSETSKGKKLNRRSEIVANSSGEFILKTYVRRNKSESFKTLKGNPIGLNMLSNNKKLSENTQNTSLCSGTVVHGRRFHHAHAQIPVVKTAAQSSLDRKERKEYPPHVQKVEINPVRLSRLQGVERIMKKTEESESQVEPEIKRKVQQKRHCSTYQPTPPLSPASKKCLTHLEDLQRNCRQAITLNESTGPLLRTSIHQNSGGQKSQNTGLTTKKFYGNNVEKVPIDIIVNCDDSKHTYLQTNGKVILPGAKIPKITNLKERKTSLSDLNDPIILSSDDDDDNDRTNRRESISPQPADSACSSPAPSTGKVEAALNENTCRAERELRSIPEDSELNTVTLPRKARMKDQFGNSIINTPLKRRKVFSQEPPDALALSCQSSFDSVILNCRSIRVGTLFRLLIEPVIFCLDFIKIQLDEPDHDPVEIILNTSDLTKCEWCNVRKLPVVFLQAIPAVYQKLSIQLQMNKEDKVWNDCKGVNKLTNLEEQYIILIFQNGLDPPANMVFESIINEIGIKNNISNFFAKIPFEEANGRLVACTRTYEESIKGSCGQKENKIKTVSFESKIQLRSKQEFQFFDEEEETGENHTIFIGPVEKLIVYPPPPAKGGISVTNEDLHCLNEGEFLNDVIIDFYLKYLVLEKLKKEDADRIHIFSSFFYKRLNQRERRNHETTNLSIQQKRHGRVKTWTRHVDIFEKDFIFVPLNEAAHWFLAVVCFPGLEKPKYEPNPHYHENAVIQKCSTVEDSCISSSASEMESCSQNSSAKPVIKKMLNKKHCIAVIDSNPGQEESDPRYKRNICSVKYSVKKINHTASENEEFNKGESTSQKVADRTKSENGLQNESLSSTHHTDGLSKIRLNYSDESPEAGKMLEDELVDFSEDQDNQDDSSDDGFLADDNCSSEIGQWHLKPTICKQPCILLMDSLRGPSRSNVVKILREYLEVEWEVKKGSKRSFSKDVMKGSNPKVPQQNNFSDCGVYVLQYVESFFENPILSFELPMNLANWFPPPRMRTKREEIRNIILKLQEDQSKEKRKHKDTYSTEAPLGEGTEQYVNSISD
As to the kind of experiment: SAR Analysis of small molecule inhibitors of Sentrin-specific protease 6 (SENP6) using a Luminescent assay. [Related pubchem assays (depositor defined):AID2582, AID2599]. In kind it is functional.

Experiment [6] has as its target T5, Sentrin-specific protease 7 (Homo sapiens, UniProt Q9BQF6).
T5 sequence (Q9BQF6 whole entry): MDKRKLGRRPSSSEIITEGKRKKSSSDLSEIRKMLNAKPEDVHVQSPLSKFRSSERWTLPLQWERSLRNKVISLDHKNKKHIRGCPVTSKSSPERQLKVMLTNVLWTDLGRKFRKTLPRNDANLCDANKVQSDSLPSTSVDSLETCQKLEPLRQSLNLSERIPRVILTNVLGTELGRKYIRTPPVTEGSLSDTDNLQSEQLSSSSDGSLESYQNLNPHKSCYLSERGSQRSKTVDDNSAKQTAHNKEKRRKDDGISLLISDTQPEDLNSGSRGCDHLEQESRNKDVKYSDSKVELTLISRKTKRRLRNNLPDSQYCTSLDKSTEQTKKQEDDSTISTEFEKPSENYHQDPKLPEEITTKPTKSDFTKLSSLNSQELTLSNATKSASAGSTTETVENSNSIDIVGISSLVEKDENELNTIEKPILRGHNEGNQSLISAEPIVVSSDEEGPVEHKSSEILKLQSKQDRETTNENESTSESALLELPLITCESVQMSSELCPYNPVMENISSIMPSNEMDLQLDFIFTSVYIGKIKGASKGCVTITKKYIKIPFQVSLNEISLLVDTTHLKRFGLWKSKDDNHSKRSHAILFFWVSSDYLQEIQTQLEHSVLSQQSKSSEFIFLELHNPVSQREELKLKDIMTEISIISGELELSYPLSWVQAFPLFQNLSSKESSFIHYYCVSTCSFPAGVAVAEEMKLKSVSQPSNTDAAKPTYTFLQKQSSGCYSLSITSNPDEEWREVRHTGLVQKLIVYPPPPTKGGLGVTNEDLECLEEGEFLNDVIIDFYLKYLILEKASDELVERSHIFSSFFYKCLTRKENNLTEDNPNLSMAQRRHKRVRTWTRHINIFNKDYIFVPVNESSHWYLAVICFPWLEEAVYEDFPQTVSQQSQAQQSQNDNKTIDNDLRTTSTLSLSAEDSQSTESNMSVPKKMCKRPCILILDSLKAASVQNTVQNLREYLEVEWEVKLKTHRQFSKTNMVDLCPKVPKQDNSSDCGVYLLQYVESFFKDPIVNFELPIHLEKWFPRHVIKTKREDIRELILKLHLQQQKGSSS
As to the kind of experiment: SENP7 protease inhibitors, SAR follow-up, biochemical, luminescence (AID 504497). The experiment is classed as functional.

Experiment [7] has as its target Ras and Rab interactor 1/Tyrosine-protein kinase ABL1 (Homo sapiens, UniProt P00519+Q13671). The experiment is classed as functional.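 Note: biochemical TR-FRET dose-response test measuring inhibition of binding between Rin1 and Abl proteins.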
Experiment [8] deals with T6, Low molecular weight phosphotyrosine protein phosphatase (Homo sapiens, UniProt P24666).
T6 sequence (P24666 whole entry): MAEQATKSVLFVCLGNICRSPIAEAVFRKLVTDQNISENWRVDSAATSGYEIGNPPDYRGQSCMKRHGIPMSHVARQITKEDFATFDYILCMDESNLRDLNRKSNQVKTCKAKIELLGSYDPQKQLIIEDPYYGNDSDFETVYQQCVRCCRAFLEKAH
The experiment is classed as functional. The settings on record: read-out: IC50_Mean.

The nature of experiment [9]: HepG2 cell cytotoxicity, dose response, cytotoxicity control, ATP luminescence, cherry-pick, set 6 (AID 1053125). The experiment is classed as functional, cell-based.
For experiment [10], the system named is Streptococcus sp. 'group A'. As to the kind of experiment: growth inhibition of control SK(-) GAS strain, dose response, counter-screen for streptokinase expression inhibitor project, luminescence, kanamycin, BacTiterGlo, confirmation (AID 1900). The experiment is classed as functional, organism-based.
A further experiment has as its system Streptococcus. Kind of experiment: Group A Streptococcus viability loss, dose response, counter-screen for streptokinase expression inhibitor project, luminescence, BacTiterGlo (AID 1915).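 Note: potency for reduction of bacterial viability or growth.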 The experiment is classed as functional, organism-based.
The nature of experiment [11]: Luminescence Cell-Based Dose Retest to Confirm Inhibitors of Cancer Stem Cells. [Related pubchem assays (depositor defined):AID2717, AID2721]. The experiment is classed as functional. The conditions noted are these: Homo sapiens.
For experiment [12], the target named is DNA (cytosine-5)-methyltransferase 1 (Homo sapiens, UniProt P26358). As to the kind of experiment: DNMT1 methyltransferase inhibitors, confirmation, biochemical, fluorescent molecular beacon (AID 602386). In kind it is functional.
Chain of DNA (cytosine-5)-methyltransferase 1 (P26358 whole entry): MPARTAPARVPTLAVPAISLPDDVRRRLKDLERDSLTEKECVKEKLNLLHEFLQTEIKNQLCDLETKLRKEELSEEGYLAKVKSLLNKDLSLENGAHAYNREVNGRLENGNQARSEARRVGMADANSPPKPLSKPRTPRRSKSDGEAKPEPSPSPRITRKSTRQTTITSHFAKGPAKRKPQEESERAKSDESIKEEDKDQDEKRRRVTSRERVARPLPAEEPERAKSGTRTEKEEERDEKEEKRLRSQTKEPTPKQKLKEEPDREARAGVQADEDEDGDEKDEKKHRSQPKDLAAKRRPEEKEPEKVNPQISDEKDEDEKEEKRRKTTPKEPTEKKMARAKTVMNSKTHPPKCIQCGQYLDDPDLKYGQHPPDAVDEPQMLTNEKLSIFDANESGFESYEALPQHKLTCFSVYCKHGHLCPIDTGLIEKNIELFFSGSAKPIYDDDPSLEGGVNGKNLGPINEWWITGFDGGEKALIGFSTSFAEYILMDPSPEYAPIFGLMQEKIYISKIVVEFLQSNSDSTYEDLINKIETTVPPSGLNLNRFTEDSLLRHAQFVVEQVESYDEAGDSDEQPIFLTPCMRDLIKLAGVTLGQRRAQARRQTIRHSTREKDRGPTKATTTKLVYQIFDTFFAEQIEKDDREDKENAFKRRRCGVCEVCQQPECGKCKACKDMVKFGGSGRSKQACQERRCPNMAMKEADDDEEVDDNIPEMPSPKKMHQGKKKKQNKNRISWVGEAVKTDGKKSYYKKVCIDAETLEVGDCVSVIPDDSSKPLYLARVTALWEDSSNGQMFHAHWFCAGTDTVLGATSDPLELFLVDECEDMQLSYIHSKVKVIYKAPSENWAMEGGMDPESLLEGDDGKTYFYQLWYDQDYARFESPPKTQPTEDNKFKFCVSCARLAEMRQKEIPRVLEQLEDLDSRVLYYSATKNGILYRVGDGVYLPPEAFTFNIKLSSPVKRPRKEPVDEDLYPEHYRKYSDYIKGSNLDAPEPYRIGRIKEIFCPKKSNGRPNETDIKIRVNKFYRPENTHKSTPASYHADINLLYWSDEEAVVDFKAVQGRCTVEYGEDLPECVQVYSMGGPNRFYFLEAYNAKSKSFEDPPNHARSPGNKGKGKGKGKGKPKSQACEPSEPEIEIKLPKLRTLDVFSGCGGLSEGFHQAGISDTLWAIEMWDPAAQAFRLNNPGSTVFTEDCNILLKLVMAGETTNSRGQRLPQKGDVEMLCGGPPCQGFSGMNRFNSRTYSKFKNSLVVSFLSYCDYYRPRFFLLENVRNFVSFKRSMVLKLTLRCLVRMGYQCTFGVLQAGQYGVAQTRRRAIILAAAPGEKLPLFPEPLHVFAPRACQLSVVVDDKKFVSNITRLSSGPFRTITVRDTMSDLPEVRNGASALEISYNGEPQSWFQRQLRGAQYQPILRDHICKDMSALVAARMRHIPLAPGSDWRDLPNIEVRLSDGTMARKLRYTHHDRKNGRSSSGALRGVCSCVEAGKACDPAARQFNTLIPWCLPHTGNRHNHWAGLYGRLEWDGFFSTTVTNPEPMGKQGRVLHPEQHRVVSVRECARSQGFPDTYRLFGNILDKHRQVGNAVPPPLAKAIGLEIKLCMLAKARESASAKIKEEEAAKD

Chain of Ras and Rab interactor 1/Tyrosine-protein kinase ABL1 (P00519 whole entry): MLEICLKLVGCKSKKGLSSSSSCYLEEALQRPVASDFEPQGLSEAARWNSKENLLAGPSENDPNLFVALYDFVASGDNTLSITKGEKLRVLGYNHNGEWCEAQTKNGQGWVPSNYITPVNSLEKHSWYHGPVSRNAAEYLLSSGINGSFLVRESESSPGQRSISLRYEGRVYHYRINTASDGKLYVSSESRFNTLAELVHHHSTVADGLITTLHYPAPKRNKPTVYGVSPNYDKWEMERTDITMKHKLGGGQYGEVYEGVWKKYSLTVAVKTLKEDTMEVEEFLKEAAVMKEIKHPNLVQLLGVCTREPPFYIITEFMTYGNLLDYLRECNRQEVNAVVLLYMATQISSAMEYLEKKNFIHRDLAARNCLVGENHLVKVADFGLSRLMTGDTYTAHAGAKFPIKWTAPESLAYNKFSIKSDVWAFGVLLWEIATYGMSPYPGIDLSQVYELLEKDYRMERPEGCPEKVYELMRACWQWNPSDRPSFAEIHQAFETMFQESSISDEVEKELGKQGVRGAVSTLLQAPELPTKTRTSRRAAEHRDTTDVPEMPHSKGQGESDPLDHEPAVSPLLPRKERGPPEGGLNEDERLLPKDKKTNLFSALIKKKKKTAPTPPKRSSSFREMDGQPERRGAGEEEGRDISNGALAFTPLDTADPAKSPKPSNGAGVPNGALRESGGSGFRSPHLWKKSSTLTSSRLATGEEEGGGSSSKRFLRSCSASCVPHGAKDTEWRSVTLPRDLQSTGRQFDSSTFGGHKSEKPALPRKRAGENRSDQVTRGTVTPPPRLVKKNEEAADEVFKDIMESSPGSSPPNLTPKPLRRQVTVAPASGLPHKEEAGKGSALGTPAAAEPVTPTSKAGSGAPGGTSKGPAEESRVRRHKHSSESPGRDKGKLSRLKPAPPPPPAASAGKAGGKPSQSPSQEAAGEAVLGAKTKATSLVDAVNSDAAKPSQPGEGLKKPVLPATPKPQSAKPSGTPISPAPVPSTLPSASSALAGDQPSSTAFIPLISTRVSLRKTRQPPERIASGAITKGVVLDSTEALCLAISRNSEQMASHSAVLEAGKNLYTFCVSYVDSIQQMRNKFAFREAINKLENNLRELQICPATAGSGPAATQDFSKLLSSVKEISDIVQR
Chain of Ras and Rab interactor 1/Tyrosine-protein kinase ABL1 (Q13671 whole entry): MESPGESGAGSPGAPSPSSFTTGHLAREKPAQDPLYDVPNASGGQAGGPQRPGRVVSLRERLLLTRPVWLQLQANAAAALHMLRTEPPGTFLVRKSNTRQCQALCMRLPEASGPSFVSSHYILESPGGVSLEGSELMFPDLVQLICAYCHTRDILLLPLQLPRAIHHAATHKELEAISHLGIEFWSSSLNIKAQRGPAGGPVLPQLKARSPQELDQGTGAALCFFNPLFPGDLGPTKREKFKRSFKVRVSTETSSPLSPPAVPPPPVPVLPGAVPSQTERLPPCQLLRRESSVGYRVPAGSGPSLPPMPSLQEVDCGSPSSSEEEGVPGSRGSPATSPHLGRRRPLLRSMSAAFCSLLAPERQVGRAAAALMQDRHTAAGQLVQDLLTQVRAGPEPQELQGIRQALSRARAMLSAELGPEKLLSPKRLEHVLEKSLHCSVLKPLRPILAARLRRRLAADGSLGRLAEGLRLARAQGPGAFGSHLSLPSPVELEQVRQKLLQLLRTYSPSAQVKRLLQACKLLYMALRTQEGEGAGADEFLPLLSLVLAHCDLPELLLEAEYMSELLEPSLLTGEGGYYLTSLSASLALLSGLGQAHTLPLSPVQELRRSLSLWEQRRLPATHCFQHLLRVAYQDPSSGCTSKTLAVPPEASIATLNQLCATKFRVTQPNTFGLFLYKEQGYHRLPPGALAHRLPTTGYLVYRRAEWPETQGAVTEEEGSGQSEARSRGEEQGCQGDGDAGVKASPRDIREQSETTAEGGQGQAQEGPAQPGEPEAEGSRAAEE

Take `CCn1c(/C=C/Nc2ccccc2)[n+](CC)c2cc(Cl)ccc21`: the IC50 on Protein Wnt-3a is 26.3 µM (inactive).
With `CC1=NN(c2ccc(C(F)(F)F)cn2)C(=O)C1`, the IC50 in [1] is 17.7 µM (active); in [2], 10.1 µM (active); in [3], 15.6 µM (active).
As for `Cc1ccc(N/N=C/c2c[nH]c3ccccc23)cc1`, the IC50 in experiment [4] was 7.41 µM (active); at Caspase-3, 6.02 µM (active); in [5] it was 6.76 µM (active); in experiment [6], 3.21 µM (active).
For `CSCCC(c1nnnn1C1CCCCC1)N1CCC(n2c(O)nc3ccccc32)CC1` (stereo not given), the IC50 in experiment [7] was 6.82 µM (active).
On the same count and under the same terms, then `COc1ccccc1CN1C[C@@H]2C[C@@H](c3ccc4nsnc4c3)N3CCC[C@@]23C1=O`, with 22.3 µM (inactive).
Take `Cc1ccc2nc3c(cc(C(=O)NCc4ccccc4)c(=N)n3CCCn3ccnc3)c(=O)n2c1`: the IC50 in [8] is 29.8 µM (inactive). Moreover, the AC50 in [9] was 48 µM (active).
Turning to `COc1ccc(NC(=S)N2CCC(Cc3ccccc3)CC2)cc1`, at Protein Wnt-3a, the IC50 was 25.5 µM (inactive).
In the case of `COc1cccc2sc(NC(=O)c3ccc(S(=O)(=O)N(C)C4CCCC4)cc3)nc12`, the IC50 (in experiment [4]; at Caspase-3; in experiment [5]; in experiment [6]) was > 99 µM (inactive) in each case.
As to `COC(=O)c1nn(-c2ccccc2)c2c1C(c1ccc(OC)cc1)(C(F)(F)F)N/C(=N\c1ccc(C)cc1)O2` (stereo not given), the IC50 (in experiment [4]; at Caspase-3; in [5]; in experiment [6]) was > 99 µM (inactive) throughout.
Turning to `CC(C)COc1ccc(-c2nn(-c3ccccc3)cc2/C=C2/SC(=S)N(CC(=O)O)C2=O)cc1`, the EC50 was 2.85 µM (active) in experiment [10] and 4.38 µM (active) with Streptococcus. The AC50 in experiment [11] was 2.87 µM (active). Besides, the IC50 in [12] was 5.58 µM (active).
